Reference: patent US4281121A, “1,3,4-Thiadiazole-2-carboxylic acid derivatives, process for making the same and fungicidal and nematocidal compositions containing same” (Schering Aktiengesellschaft, priority 1978, dated 1981)
Where two headings read alike, the source gives them in different places.

Columns and labels:
Pythium ultimum = assay: Threshold concentration test for use of the compounds against Pythium ultimum (infested soil, garden peas); assay type: in vivo; design: key to root evaluation (1-4): 4: white roots without fungous necrosis; 3: white roots, minor fungous necrosis; 2: brown roots, already more pronounced fungous necrosis; 1: heavy fungous necrosis, roots rotted; conditions: for root evaluation (1-4): 3 weeks; for number of sound peas: 20 grains per dish, 3 weeks at 20-24° C.
Procedure: Threshold concentration test for use of the compounds against Pythium ultimum
A 20% concentration of certain pulverulent active agents as listed below were mixed in uniform manner into a soil which had been heavily infested by Pythium ultimum. The thus treated soil was then placed into clay dishes of a capacity of 0.5 l earth. Without any intermediate time lapse 20 grain of garden peas (Pisum sativum L. convar. medullare Alef.) of the type "Wunder von Kelvedon" were then seeded into each of the clay dishes. After a cultivation period of three weeks at 20° to 24° C. in a hothouse the number of sound peas was determined and a root evaluation was carried out. The active agents amounts and results appear from the following table.
(§1) The root evaluation was carried out on a scale from 1 to 4 as follows: […]

Fusarium avenaceum = assay: Threshold concentration test in case of Fusarium avenaceum (infested soil, garden peas); assay type: in vivo; conditions: for number of sound peas: 20 grains per dish, 18 days at 20-24° C.; for root evaluation (1-4): 18 days
Procedure: Threshold concentration test in case of Fusarium avenaceum
A 20% pulverulent active agent of the type further identified in the table below was mixed in uniform manner with a soil which had been heavily infested with Fusarium avenaceum. The thus treated soil was then placed into clay dishes of a capacity of 0.5 l of earth. Each dish was seeded without any intervening time with 20 grains of garden peas (Pisum sativum L. convar. medullare Alef.) of the type "Wunder von Kelvedon". After a cultivation time of 18 days at 20° to 24° C. in a hot house the number of sound peas was determined and a root evaluation was carried out. The active agents employed, the amounts and results appear from the following table.
as §1

Tilletia caries = assay: Treatment of oat seeds infested with Tilletia caries (spore germination); assay type: in vivo
Helminthosporium gram = conditions: about 5 weeks
Procedure: Treatment of barley seeds infested with Helminthosporium gram
After emergence, the plants were subjected to illumination for 12 hours per day. After about 5 weeks the infested plants were counted and the total number of plants for each test were also counted. The active agents tested were used as pulverulent compositions.

SMILES: CCCC[S+]([O-])c1nnc(C#N)s1 (centres unmarked) [5-butylsulfinyl-1,3,4-thiadiazole-2-carbonitrile]
- root evaluation (1-4) (Pythium ultimum; 20 mg/l soil): 4
- number of sound peas (Pythium ultimum; 20 mg/l soil): 18
- root evaluation (1-4) (Pythium ultimum; 40 mg/l soil): 4
- number of sound peas (Pythium ultimum; 40 mg/l soil): 18
- root evaluation (1-4) (Pythium ultimum; 80 mg/l soil): 4
- number of sound peas (Pythium ultimum; 80 mg/l soil): 20
- number of sound peas (Fusarium avenaceum; 25 mg/l soil): 19
- root evaluation (1-4) (Fusarium avenaceum; 25 mg/l soil): 4
- number of sound peas (Fusarium avenaceum; 50 mg/l soil): 19
- root evaluation (1-4) (Fusarium avenaceum; 50 mg/l soil): 4
- number of sound peas (Fusarium avenaceum; 100 mg/l soil): 19
- root evaluation (1-4) (Fusarium avenaceum; 100 mg/l soil): 4
- % activity (Tilletia caries; 50 g active agent per 100 kg): 100%

SMILES: CCCC[S+]([O-])c1nnc(C(=O)N(C)C)s1 (centres unmarked) [5-butylsulfinyl-1,3,4-thiadiazole-2-carboxylic acid-dimethylamide]
- % activity (Helminthosporium gram; 50 g active agent per 100 kg): 100%

SMILES: CCCCS(=O)(=O)c1nnc(C(=O)N2CCC2)s1 [5-butylsulfonyl-1,3,4-thiadiazole-2-carboxylic acid-N,N-trimethylenamide]
- number of sound peas (Fusarium avenaceum; 25 mg/l soil): 5
- root evaluation (1-4) (Fusarium avenaceum; 25 mg/l soil): 1
- number of sound peas (Fusarium avenaceum; 50 mg/l soil): 13
- root evaluation (1-4) (Fusarium avenaceum; 50 mg/l soil): 2
- number of sound peas (Fusarium avenaceum; 100 mg/l soil): 18
- root evaluation (1-4) (Fusarium avenaceum; 100 mg/l soil): 3
- % activity (Tilletia caries; 50 g active agent per 100 kg): 100%

SMILES: CCS(=O)(=O)c1nnc(C(=O)N2CCC2)s1 [5-ethylsulfonyl-1,3,4-thiadiazole-2-carboxylic acid-N,N-trimethyleneamide]
- root evaluation (1-4) (Pythium ultimum; 20 mg/l soil): 4
- number of sound peas (Pythium ultimum; 20 mg/l soil): 20
- root evaluation (1-4) (Pythium ultimum; 40 mg/l soil): 4
- number of sound peas (Pythium ultimum; 40 mg/l soil): 19
- root evaluation (1-4) (Pythium ultimum; 80 mg/l soil): 4
- number of sound peas (Pythium ultimum; 80 mg/l soil): 20

SMILES: CC(C)[S+]([O-])c1nnc(C#N)s1 (centres unmarked) [5-isopropylsulfinyl-1,3,4-thiadiazole-2-carbonitrile]
- % activity (Helminthosporium gram; 50 g active agent per 100 kg): 93%
- root evaluation (1-4) (Pythium ultimum; 20 mg/l soil): 3
- number of sound peas (Pythium ultimum; 20 mg/l soil): 17
- root evaluation (1-4) (Pythium ultimum; 40 mg/l soil): 4
- number of sound peas (Pythium ultimum; 40 mg/l soil): 17
- root evaluation (1-4) (Pythium ultimum; 80 mg/l soil): 4
- number of sound peas (Pythium ultimum; 80 mg/l soil): 19
- number of sound peas (Fusarium avenaceum; 25 mg/l soil): 18
- root evaluation (1-4) (Fusarium avenaceum; 25 mg/l soil): 4
- number of sound peas (Fusarium avenaceum; 50 mg/l soil): 19
- root evaluation (1-4) (Fusarium avenaceum; 50 mg/l soil): 4
- number of sound peas (Fusarium avenaceum; 100 mg/l soil): 18
- root evaluation (1-4) (Fusarium avenaceum; 100 mg/l soil): 4
- % activity (Tilletia caries; 20 g active agent per 100 kg): 87%
- % activity (Tilletia caries; 50 g active agent per 100 kg): 100%

SMILES: CC(C)[S+]([O-])c1nnc(C(N)=O)s1 (centres unmarked) [5-isopropylsulfinyl-1,3,4-thiadiazole-2-carboxamide]
- % activity (Helminthosporium gram; 50 g active agent per 100 kg): 100%
- % activity (Tilletia caries; 50 g active agent per 100 kg): 100%

SMILES: CC(C)[S+]([O-])c1nnc(C(=O)NCC2CCCCC2)s1 (centres unmarked) [5-isopropylsulfinyl-1,3,4-thiadiazole-2-carboxylic acid-cyclohexylmethylamide]
- % activity (Tilletia caries; 20 g active agent per 100 kg): 99%
- % activity (Tilletia caries; 50 g active agent per 100 kg): 100%

SMILES: C[S+]([O-])c1nnc(C#N)s1 (centres unmarked) [5-methylsulfinyl-1,3,4-thiadiazole-2-carbonitrile]
- % activity (Helminthosporium gram; 50 g active agent per 100 kg): 94%
- root evaluation (1-4) (Pythium ultimum; 20 mg/l soil): 4
- number of sound peas (Pythium ultimum; 20 mg/l soil): 19
- root evaluation (1-4) (Pythium ultimum; 40 mg/l soil): 4
- number of sound peas (Pythium ultimum; 40 mg/l soil): 20
- root evaluation (1-4) (Pythium ultimum; 80 mg/l soil): 4
- number of sound peas (Pythium ultimum; 80 mg/l soil): 20
- number of sound peas (Fusarium avenaceum; 25 mg/l soil): 20
- root evaluation (1-4) (Fusarium avenaceum; 25 mg/l soil): 4
- number of sound peas (Fusarium avenaceum; 50 mg/l soil): 18
- root evaluation (1-4) (Fusarium avenaceum; 50 mg/l soil): 4
- number of sound peas (Fusarium avenaceum; 100 mg/l soil): 19
- root evaluation (1-4) (Fusarium avenaceum; 100 mg/l soil): 4
- % activity (Tilletia caries; 20 g active agent per 100 kg): 100%
- % activity (Tilletia caries; 50 g active agent per 100 kg): 100%

SMILES: C[S+]([O-])c1nnc(C(N)=O)s1 (centres unmarked) [5-methylsulfinyl-1,3,4-thiadiazole-2-carboxamide]
- % activity (Helminthosporium gram; 50 g active agent per 100 kg): 100%
- % activity (Tilletia caries; 20 g active agent per 100 kg): 98%
- % activity (Tilletia caries; 50 g active agent per 100 kg): 100%

SMILES: C[S+]([O-])c1nnc(C(=O)NCc2ccccc2Cl)s1 (centres unmarked) [5-methylsulfinyl-1,3,4-thiadiazole-2-carboxylic acid-(2-chlorobenzyleamide)]
- number of sound peas (Fusarium avenaceum; 25 mg/l soil): 7
- root evaluation (1-4) (Fusarium avenaceum; 25 mg/l soil): 2
- number of sound peas (Fusarium avenaceum; 50 mg/l soil): 11
- root evaluation (1-4) (Fusarium avenaceum; 50 mg/l soil): 3
- number of sound peas (Fusarium avenaceum; 100 mg/l soil): 18
- root evaluation (1-4) (Fusarium avenaceum; 100 mg/l soil): 4

SMILES: COCCNC(=O)c1nnc(S(C)(=O)=O)s1 [5-methylsulfonyl-1,3,4-thiadiazole-2-carboxylic acid-(2-methoxyethyl)-amide]
- % activity (Helminthosporium gram; 20 g active agent per 100 kg): 92%
- % activity (Helminthosporium gram; 50 g active agent per 100 kg): 100%
- % activity (Tilletia caries; 20 g active agent per 100 kg): 93%
- % activity (Tilletia caries; 50 g active agent per 100 kg): 100%

SMILES: C=CCNC(=O)c1nnc([S+]([O-])CCC)s1 (centres unmarked) [5-propylsulfinyl-1,3,4-thiadiazole-2-carboxylic acid-allylamide]
- % activity (Helminthosporium gram; 50 g active agent per 100 kg): 96%
- root evaluation (1-4) (Pythium ultimum; 20 mg/l soil): 2
- number of sound peas (Pythium ultimum; 20 mg/l soil): 15
- root evaluation (1-4) (Pythium ultimum; 40 mg/l soil): 4
- number of sound peas (Pythium ultimum; 40 mg/l soil): 19
- root evaluation (1-4) (Pythium ultimum; 80 mg/l soil): 4
- number of sound peas (Pythium ultimum; 80 mg/l soil): 19
- % activity (Tilletia caries; 20 g active agent per 100 kg): 100%
- % activity (Tilletia caries; 50 g active agent per 100 kg): 100%

SMILES: CCC[S+]([O-])c1nnc(C(=O)NC(C)C)s1 (centres unmarked) [5-propylsulfinyl-1,3,4-thiadiazole-2-carboxylic acid-isopropylamide]
- % activity (Helminthosporium gram; 50 g active agent per 100 kg): 100%
- number of sound peas (Fusarium avenaceum; 25 mg/l soil): 9
- root evaluation (1-4) (Fusarium avenaceum; 25 mg/l soil): 3
- number of sound peas (Fusarium avenaceum; 50 mg/l soil): 13
- root evaluation (1-4) (Fusarium avenaceum; 50 mg/l soil): 4
- number of sound peas (Fusarium avenaceum; 100 mg/l soil): 16
- root evaluation (1-4) (Fusarium avenaceum; 100 mg/l soil): 4
- % activity (Tilletia caries; 20 g active agent per 100 kg): 100%
- % activity (Tilletia caries; 50 g active agent per 100 kg): 100%

SMILES: CCCS(=O)(=O)c1nnc(C(=O)NCCCCl)s1 [5-propylsulfonyl-1,3,4-thiadiazole-2-carboxylic acid-(3-chloropropyl)-amide]
- root evaluation (1-4) (Pythium ultimum; 20 mg/l soil): 1
- number of sound peas (Pythium ultimum; 20 mg/l soil): 10
- root evaluation (1-4) (Pythium ultimum; 40 mg/l soil): 3
- number of sound peas (Pythium ultimum; 40 mg/l soil): 19
- root evaluation (1-4) (Pythium ultimum; 80 mg/l soil): 4
- number of sound peas (Pythium ultimum; 80 mg/l soil): 19

SMILES: CCCCNC(=O)c1nnc(S(=O)(=O)CCC)s1 [5-propylsulfonyl-1,3,4-thiadiazole-2-carboxylic acid-butylamide]
- number of sound peas (Fusarium avenaceum; 25 mg/l soil): 9
- root evaluation (1-4) (Fusarium avenaceum; 25 mg/l soil): 1
- number of sound peas (Fusarium avenaceum; 50 mg/l soil): 16
- root evaluation (1-4) (Fusarium avenaceum; 50 mg/l soil): 3
- number of sound peas (Fusarium avenaceum; 100 mg/l soil): 17
- root evaluation (1-4) (Fusarium avenaceum; 100 mg/l soil): 4
- % activity (Tilletia caries; 10 g active agent per 100 kg): 99.2%
- % activity (Tilletia caries; 20 g active agent per 100 kg): 99.7%
- % activity (Tilletia caries; 50 g active agent per 100 kg): 100%

SMILES: CCCS(=O)(=O)c1nnc(C(=O)NCC)s1 [5-propylsulfonyl-1,3,4-thiadiazole-2-carboxylic acid-ethylamide]
- root evaluation (1-4) (Pythium ultimum; 20 mg/l soil): 3
- number of sound peas (Pythium ultimum; 20 mg/l soil): 14
- root evaluation (1-4) (Pythium ultimum; 40 mg/l soil): 4
- number of sound peas (Pythium ultimum; 40 mg/l soil): 14
- root evaluation (1-4) (Pythium ultimum; 80 mg/l soil): 4
- number of sound peas (Pythium ultimum; 80 mg/l soil): 14
- % activity (Tilletia caries; 10 g active agent per 100 kg): 99.3%
- % activity (Tilletia caries; 20 g active agent per 100 kg): 99.8%
- % activity (Tilletia caries; 50 g active agent per 100 kg): 100%

SMILES: S=C([S-])NCCNC(=S)[S-].[Mn+2] [Manganese ethylene-1,2-bis-dithiocarbamate, reference compound]
- root evaluation (1-4) (Pythium ultimum; 20 mg/l soil): 1
- number of sound peas (Pythium ultimum; 20 mg/l soil): 1
- root evaluation (1-4) (Pythium ultimum; 40 mg/l soil): 1
- number of sound peas (Pythium ultimum; 40 mg/l soil): 4
- root evaluation (1-4) (Pythium ultimum; 80 mg/l soil): 1
- number of sound peas (Pythium ultimum; 80 mg/l soil): 11
- number of sound peas (Fusarium avenaceum; 25 mg/l soil): 0
- root evaluation (1-4) (Fusarium avenaceum; 25 mg/l soil): 1
- number of sound peas (Fusarium avenaceum; 50 mg/l soil): 0
- root evaluation (1-4) (Fusarium avenaceum; 50 mg/l soil): 1
- number of sound peas (Fusarium avenaceum; 100 mg/l soil): 12
- root evaluation (1-4) (Fusarium avenaceum; 100 mg/l soil): 1
